# Test results taken from US9976141B2, “Compositions and methods for inhibiting gene expression of Hif2alpha” (Arrowhead Madison Inc., priority 2015, dated 2018).
# System: human (tumor) Hif2α (EPAS1) mRNA
# Experiment: Hif2α knockdown in orthotopic RCC tumor bearing mice, single injection of RNAi trigger-delivery polymer conjugate, RT-qPCR (Table 7)
# Type: in vivo
# Details: single tail vein injection, relative to isotonic glucose
# Procedure, shortened: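 Female athymic nude mice carried orthotopic A498-SEAP ccRCC kidney tumours, used 5–6 weeks after implantation. They received one tail-vein injection of RGD-targeted Hif2α RNAi trigger–polymer conjugate or isotonic glucose. Tumour Hif2α mRNA was measured by TaqMan RT-qPCR normalised to CycA (ΔΔCT) and expressed relative to glucose-treated mice.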
# [1] = RNAi trigger 80 μg, polymer 126 400 μg
# [2] = RNAi trigger 50 μg, polymer 064 125 μg
substance,measurement,setting,value
"AD01424 (antisense TUUCAUGAAAUCGUUACGUCGGCUAU; sense UAUAUCGACGUAACGAUUUCAUGAAA; Hif2alpha RNAi agent antisense strand; modified_base 25 modified base = “2′-hydroxy corresponding nucleoside”; modified_base 2,4,6,8,10,12,14,16,18,20 /mod_base = “2′-deoxy-2′-fluoro corresponding nucleoside”; modified_base 3,5,7,11,13,15,17,19,21,22,23,24,26 /mod_base = “2′-O-methyl corresponding nucleoside”; modified_base 9 /mod_base = “2′-3′ seco corresponding nucleotide”; modified_base 2,3,23,; Hif2alpha RNAi agent sense strand; modified_base 2,4 modified base = “2′-hydroxy corresponding nucleoside”; modified_base 6,8,10,12,14,16,18,20,22,24 /mod_base = “2′-deoxy-2′-fluoro corresponding)",Relative Expression day 4 (Hif2α mRNA in kidney tumor),"RNAi trigger 150 μg, polymer 100A 300 μg",0.54
"AD01291 (antisense TUUCAUGAAAUCGUUACGUUGGC; sense CAACGUAACGAUUUCAUGAAA; Hif2alpha RNAi agent antisense strand; modified_base 2,4,6,8,10,14,16,18,20 /mod_base = “2′-deoxy-2′-fluoro corresponding nucleoside”; modified_base 3,5,7,9,11,12,13,15,17,19,21,22,23 /mod_base = “2′-O-methyl corresponding nucleoside”; modified_base 2,3,22,23 /mod_base = “5′-phosphorothioate corresponding nucleotide”; Hif2alpha RNAi agent sense strand; modified_base 1,3,5,7,9,10,11,13,15,17,19,21 /mod_base = “2′-deoxy-2′-fluoro corresponding nucleoside”; modified_base 2,4,6,8,12,14,16,18,20 /mod_base = “2′-O-methyl corresponding nucleoside”; modified_base 2,3 /mod_base = “5′-phosphorothioate)",Relative Expression day 4 (Hif2α mRNA in kidney tumor),[1],0.19
"AD03264 (antisense UUUCAUGAAAUCGUUACGUUG; sense ACGUAACGAUUUCAUGAAAT; Hif2alpha RNAi agent antisense strand; modified_base 2,3,8,10,14 /mod_base = “2′-deoxy-2′-fluoro corresponding nucleoside”; modified_base 1,4,5,6,7,9,11,12,13,15,16,17,18,19,20,21 /mod_base = “2′-O-methyl corresponding nucleoside”; modified_base 2,3,20,21 /mod_base = “5′-phosphorothioate corresponding nucleotide”; Hif2alpha RNAi agent sense strand; modified_base 7,8,9 /mod_base = “2′-deoxy-2′-fluoro corresponding nucleoside”; modified_base 1,2,3,4,5,6,10,11,12,13,14,15,16,17,18,19 /mod_base = “2′-O-methyl corresponding nucleoside”; modified_base 20 /mod_base = “3′-3′-linked nucleotide”; modi)",Relative Expression day 4 (Hif2α mRNA in kidney tumor),[2],0.264
"AD01893 (antisense UGUAAAACAAUUGUGUACUTT; sense AGUACACAAUUGUUUUACAT; Hif2alpha RNAi agent antisense strand; modified_base 2,4,6,8,10,12,14,15,18 /mod_base = “2′-deoxy-2′-fluoro corresponding nucleoside”; modified_base 1,3,5,7,9,11,13,16,17,19 /mod_base = “2′-O-methyl corresponding nucleoside”; modified_base 2,3,21 /mod_base = “5′-phosphorothioate corresponding nucleotide”; Hif2alpha RNAi agent sense strand; modified_base 3,4,7,9,11,13,17 /mod_base = “2′-deoxy-2′-fluoro corresponding nucleoside”; modified_base 1,2,5,6,8,10,12,14,15,16,18,19 /mod_base = “2′-O-methyl corresponding nucleoside”; modified_base 20 /mod_base = “3′-3′-linked nucleotide”; modified_base)",Relative Expression day 4 (Hif2α mRNA in kidney tumor),"RNAi trigger 100 μg, polymer 064 250 μg",0.115
"AD03189 (antisense UGUAAAACAAUUGUGUACUUUAA; sense AAAGUACACAAUUGUUUUACA; Hif2alpha RNAi agent antisense strand; modified_base 2,4,6,8,10,14,16,18 /mod_base = “2′-deoxy-2′-fluoro corresponding nucleoside”; modified_base 1,3,5,7,9,11,12,13,15,17,19,20,21,22,23 /mod_base = “2′-O-methyl corresponding nucleoside”; modified_base 2,3,22,23 /mod_base = “5′-phosphorothioate corresponding nucleotide”; Hif2alpha RNAi agent sense strand; modified_base 3,5,7,9,10,11,13,15,19 /mod_base = “2′-deoxy-2′-fluoro corresponding nucleoside”; modified_base 1,2,4,6,8,12,14,16,17,18,20 /mod_base = “2′-O-methyl corresponding nucleoside”; modified_base 21 /mod_base = “3′-3′-linked nucleoti)",Relative Expression day 4 (Hif2α mRNA in kidney tumor),[2],0.245
"AD02734 (antisense UUUCAUGAAAUCGUUACGUUG; sense ACGUAACGAUUUCAUGAAAT; Hif2alpha RNAi agent antisense strand; modified_base 2,4,6,8 /mod_base = “2′-deoxy-2′-fluoro corresponding nucleoside”; modified_base 1,3,5,7,9,10,11,12,13,14,15,16,17,18,19,20,21 /mod_base = “2′-O-methyl corresponding nucleoside”; modified_base 2,3,20,21 /mod_base = “5′-phosphorothioate corresponding nucleotide”; Hif2alpha RNAi agent sense strand; modified_base 7,9 /mod_base = “2′-deoxy-2′-fluoro corresponding nucleoside”; modified_base 1,2,3,4,5,6,8,10,11,12,13,14,15,16,17,18,19 /mod_base = “2′-O-methyl corresponding nucleoside”; modified_base 20 /mod_base = “3′-3′-linked nucleotide”; modi)",Relative Expression day 4 (Hif2α mRNA in kidney tumor),"RNAi trigger 75 μg, polymer 064 187.5 μg",0.262
"AD02873 (antisense UUUCAUGAAAUCGUUACGUUG; sense UAUACGUAACGAUUUCAUGAAAT; Hif2alpha RNAi agent antisense strand; modified_base 2,4,6,8,10,14,16,18 /mod_base = “2′-deoxy-2′-fluoro corresponding nucleoside”; modified_base 1,3,5,7,9,11,12,13,15,17,19,20,21 /mod_base = “2′-O-methyl corresponding nucleoside”; modified_base 2,3,20,21 /mod_base = “5′-phosphorothioate corresponding nucleotide”; Hif2alpha RNAi agent sense strand; modified_base 2 modified base = “2′-hydroxy corresponding nucleoside”; modified_base 6,8,10,11,12,16,18,20 /mod_base = “2′-deoxy-2′-fluoro corresponding nucleoside”; modified_base 1,3,4,5,7,9,13,14,15,17,19,21,22 /mod_base = “2′-O-methyl correspon)",Relative Expression day 4 (Hif2α mRNA in kidney tumor),[2],0.079
"AD01656 (antisense TUUCAUGAAAUCGUUACGUTT; sense ACGUAACGAUUUCAUGAAA; Hif2alpha RNAi agent antisense strand; modified_base 2,4,6,8,10,12,14,15,18 /mod_base = “2′-deoxy-2′-fluoro corresponding nucleoside”; modified_base 3,5,7,9,11,13,16,17,19 /mod_base = “2′-O-methyl corresponding nucleoside”; modified_base 2,21 /mod_base = “5′-phosphorothioate corresponding nucleotide”; Hif2alpha RNAi agent sense strand; modified_base 1,3,4,7,9,11,13,15,17,19 /mod_base = “2′-deoxy-2′-fluoro corresponding nucleoside”; modified_base 2,5,6,8,10,12,14,16,18 /mod_base = “2′-O-methyl corresponding nucleoside”; modified_base 2 /mod_base = “5′-phosphorothioate corresponding nucleotide)",Relative Expression day 4 (Hif2α mRNA in kidney tumor),"RNAi trigger 100 μg, polymer 100A 250 μg",0.184
"AD01032 (antisense TAAGUUAAGCUCCCAUACATT; sense UGUAUGGGAGCUUAACUUAT; Hif2alpha RNAi agent antisense strand; modified_base 2,4,8,10,12,14,16,18 /mod_base = “2′-deoxy-2′-fluoro corresponding nucleoside”; modified_base 3,5,7,9,11,13,15,17,19 /mod_base = “2′-O-methyl corresponding nucleoside”; modified_base 6 /mod_base = “2′-3′ seco corresponding nucleotide”; modified_base 21 /mod_base = “5′-phosphorothioate corresponding nucleotide”; Hif2alpha RNAi agent sense strand; modified_base 1,3,5,7,9,11,13,15,17,19 /mod_base = “2′-deoxy-2′-fluoro corresponding nucleoside”; modified_base 2,4,6,8,10,12,14,16,18 /mod_base = “2′-O-methyl corresponding nucleoside”; modified_b)",Relative Expression day 4 (Hif2α mRNA in kidney tumor),[1],1.00
